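Test compounds were applied to cells in 96-well plates for 48 hours at 5 doses. TGI: concentration producing complete growth inhibition.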
Experiments:
Test in all cases: inhibition of tumour cell growth, NCI panel, 48 h
[1] = tested on: MDA-MB-435
[2] = tested on: RPMI-8226 leukemia
[3] = tested on: HCT-15 colon
[4] = tested on: RXF 393 renal
[5] = tested on: NCI-H522 lung
[6] = tested on: LOX IMVI melanoma
[7] = tested on: OVCAR-4 ovarian
[8] = tested on: ACHN renal
[9] = tested on: UO-31 renal
[10] = tested on: A549 NSCLC
[11] = tested on: HS 578T breast
[12] = tested on: NCI/ADR-RES ovarian
[13] = tested on: IGROV1 ovarian
[14] = tested on: KM12 colon
[15] = tested on: HOP-92 NSCLC
[16] = tested on: A498 renal
[17] = tested on: MOLT-4 leukemia
[18] = tested on: EKVX NSCLC
[19] = tested on: SW-620 colon
[20] = tested on: NCI-H460 lung

With `COC(=O)CCc1ccc2c(c1)CC1(Cc3ccccc3C1)C2` the TGI [1] was > 100 µM, the TGI [2] was > 100 µM and the TGI [3] was > 100 µM. For the same compound, the TGI [4] was > 100 µM, the TGI [5] was > 100 µM and the TGI [6] was > 100 µM. The TGI [7] was > 100 µM, the TGI [8] was > 100 µM and the TGI [9] was > 100 µM. The TGI [10] was > 100 µM, the TGI [11] was > 100 µM and the TGI [12] was > 100 µM. The TGI [13] was > 100 µM, the TGI [14] was > 100 µM and the TGI [15] was > 100 µM. The TGI [16] was > 100 µM, the TGI [17] was > 100 µM and the TGI [18] was > 100 µM.

With `O=[N+]([O-])c1ccc(N/N=C(\c2ccccc2)c2ccccn2)nc1` the TGI [1] was > 95.3 µM, the TGI [2] was > 100 µM and the TGI [3] was > 28.5 µM. The TGI [4] was 31.8 µM, the TGI [5] was 12.7 µM and the TGI [7] was > 100 µM. For the same compound, the TGI [8] was 18.7 µM, the TGI [9] was 4.69 µM and the TGI [19] was > 77.1 µM. It also gave a TGI [10] of 24.2 µM, a TGI [11] of 26 µM and a TGI [12] of 2.02 µM. For the same compound, the TGI [20] was 22.8 µM, the TGI [13] was 20.5 µM and the TGI [14] was > 45.8 µM. For the same compound, the TGI [15] was 43.8 µM, the TGI [16] was > 100 µM and the TGI [17] was > 67.2 µM. The TGI [18] was 17.3 µM.

`C/C=C1\CNC1C(=O)O` (stereo not drawn) was tested, and the TGI [1] was > 100 µM, the TGI [2] was > 100 µM and the TGI [3] was > 100 µM. The TGI [6] was > 100 µM, the TGI [7] was > 100 µM and the TGI [8] was > 100 µM. The TGI [9] was > 100 µM, the TGI [19] was > 100 µM and the TGI [10] was > 100 µM. The TGI [11] was > 100 µM, the TGI [12] was > 100 µM and the TGI [20] was > 100 µM. For the same compound, the TGI [13] was > 100 µM, the TGI [15] was > 100 µM and the TGI [16] was > 100 µM. For the same compound, the TGI [18] was > 100 µM.

`CC(C)[Si](OC1=C(c2ccccc2)C(NC(=O)/C=C/c2ccc([N+](=O)[O-])cc2)CCC1)(C(C)C)C(C)C` (stereo not drawn) was tested, and the TGI [1] was > 100 µM, the TGI [2] was > 100 µM and the TGI [3] was > 100 µM. For the same compound, the TGI [4] was > 100 µM, the TGI [5] was > 100 µM and the TGI [6] was > 100 µM. The TGI [9] was > 100 µM, the TGI [19] was > 100 µM and the TGI [10] was > 100 µM. For the same compound, the TGI [11] was > 100 µM, the TGI [12] was > 100 µM and the TGI [20] was > 100 µM. For the same compound, the TGI [13] was > 100 µM, the TGI [14] was > 100 µM and the TGI [15] was > 100 µM. For the same compound, the TGI [16] was > 100 µM, the TGI [17] was > 100 µM and the TGI [18] was > 100 µM.

For `C[C@]12CC[C@H]3[C@@H](CCC4=CC(=O)CC[C@@]43C)[C@@H]1CC[C@@H]2C(=O)Nc1ccc([N+](=O)[O-])c(C(F)(F)F)c1`, the TGI [1] was 32.3 µM, the TGI [2] was > 100 µM and the TGI [3] was 25.7 µM. For the same compound, the TGI [5] was 37.2 µM, the TGI [6] was 30.5 µM and the TGI [7] was 34.9 µM. The TGI [8] was 38.9 µM, the TGI [9] was 32.8 µM and the TGI [19] was 37.6 µM. The TGI [10] was 37.1 µM, the TGI [11] was 38.4 µM and the TGI [12] was 38.5 µM. The TGI [20] was 33.4 µM, the TGI [13] was 43.7 µM and the TGI [14] was 36.4 µM. It also gave a TGI [15] of 58.2 µM, a TGI [16] of 33.6 µM and a TGI [17] of 70.8 µM. For the same compound, the TGI [18] was 27.8 µM.

`Clc1ccc(C2=C(c3ccccc3)C(c3ccc(Cl)cc3)N3C(=N[C@H]4CCCC[C@@H]43)N2)cc1` (stereo partly drawn) was tested, and the TGI [1] was 27.6 µM, the TGI [2] was 7.56 µM and the TGI [3] was 18.8 µM. The TGI [4] was 27.6 µM, the TGI [6] was 25.4 µM and the TGI [7] was 21.4 µM. The TGI [8] was 23.2 µM, the TGI [9] was 26.4 µM and the TGI [19] was 20.6 µM. It also gave a TGI [10] of 24.4 µM, a TGI [11] of 49.5 µM and a TGI [12] of 28.1 µM. The TGI [20] was 11.1 µM, the TGI [13] was 26.6 µM and the TGI [14] was 23.5 µM. For the same compound, the TGI [15] was 21.4 µM, the TGI [16] was 31.1 µM and the TGI [17] was 22.7 µM. The TGI [18] was 24.8 µM.

With `C[C@@H](CO)C1=CC(C#C[Si](C)(C)C)N(C(=O)Oc2ccccc2)c2ccccc21` (stereo partly drawn) the TGI [1] was 15.5 µM, the TGI [2] was 90.4 µM and the TGI [3] was 21.7 µM. It also gave a TGI [4] of 20 µM, a TGI [5] of 33.9 µM and a TGI [6] of 32.4 µM. It also gave a TGI [7] of 27 µM, a TGI [8] of 42.1 µM and a TGI [9] of 30.4 µM. The TGI [19] was > 100 µM, the TGI [10] was 61.4 µM and the TGI [11] was 47 µM. It also gave a TGI [12] of 31.3 µM, a TGI [20] of 37.4 µM and a TGI [13] of 36.4 µM. For the same compound, the TGI [14] was 34.1 µM, the TGI [15] was 24.6 µM and the TGI [17] was > 100 µM. It also gave a TGI [18] of 53.7 µM.

Work on `CSc1ccc(-c2cc(-c3nc4ccccc4[nH]3)nc(N)c2C#N)cc1` yielded a TGI [1] of 47.2 µM, a TGI [2] of 77.2 µM and a TGI [3] of 61.9 µM. It also gave a TGI [4] of 24.7 µM, a TGI [5] of 46.8 µM and a TGI [6] of 44 µM. The TGI [8] was > 100 µM, the TGI [19] was > 100 µM and the TGI [10] was > 100 µM. The TGI [11] was > 100 µM, the TGI [12] was > 100 µM and the TGI [20] was 72.5 µM. The TGI [13] was 55.9 µM, the TGI [14] was 71.2 µM and the TGI [15] was 42.9 µM. The TGI [16] was 50 µM, the TGI [17] was 37.1 µM and the TGI [18] was > 100 µM.

`CC(=O)C1=C(C)N2C(=NC3=C(CCc4ccccc43)C2c2cccc(Br)c2)S1` (stereo not drawn) was tested, and the TGI [1] was > 100 µM, the TGI [2] was 53.5 µM and the TGI [3] was > 100 µM. For the same compound, the TGI [4] was > 100 µM, the TGI [6] was > 100 µM and the TGI [7] was > 100 µM. For the same compound, the TGI [8] was > 100 µM, the TGI [9] was > 100 µM and the TGI [19] was > 100 µM. For the same compound, the TGI [10] was > 100 µM, the TGI [11] was > 100 µM and the TGI [12] was > 100 µM. For the same compound, the TGI [13] was > 100 µM, the TGI [14] was > 100 µM and the TGI [15] was > 100 µM. For the same compound, the TGI [16] was > 100 µM and the TGI [18] was > 100 µM.

`CO/N=C(\C(=O)Nc1cncs1)c1csc(N)n1` was tested, and the TGI [1] was > 10 µM, the TGI [2] was > 10 µM and the TGI [3] was > 10 µM. For the same compound, the TGI [5] was > 10 µM, the TGI [6] was > 10 µM and the TGI [7] was > 10 µM. The TGI [8] was > 10 µM, the TGI [9] was > 10 µM and the TGI [19] was > 10 µM. The TGI [10] was > 10 µM, the TGI [11] was > 10 µM and the TGI [12] was > 10 µM. For the same compound, the TGI [20] was > 10 µM, the TGI [13] was > 10 µM and the TGI [14] was > 10 µM. For the same compound, the TGI [15] was > 10 µM, the TGI [16] was > 10 µM and the TGI [17] was > 10 µM. The TGI [18] was > 10 µM.

With `CCOC(=O)c1c[nH]cc1-c1cn(S(=O)(=O)c2ccccc2)cc1C` the TGI [1] was > 10 µM, the TGI [3] was 76.4 µM and the TGI [4] was > 100 µM. The TGI [5] was 46.4 µM, the TGI [6] was 71.9 µM and the TGI [7] was > 100 µM. The TGI [8] was 64.3 µM, the TGI [9] was > 100 µM and the TGI [19] was > 10 µM. The TGI [10] was > 100 µM, the TGI [11] was 46.2 µM and the TGI [12] was > 100 µM. For the same compound, the TGI [20] was 47.3 µM, the TGI [13] was 77.7 µM and the TGI [14] was 49 µM. For the same compound, the TGI [15] was > 100 µM, the TGI [16] was > 10 µM and the TGI [17] was > 100 µM. For the same compound, the TGI [18] was 71.3 µM.

For `C/C=C1/CN2CCC34c5ccccc5N(C)C23C2CC1C4(C(=O)OC)C(O)O2` (stereo not drawn), the TGI [1] was > 100 µM, the TGI [2] was > 100 µM and the TGI [3] was > 100 µM. The TGI [5] was > 100 µM, the TGI [6] was > 100 µM and the TGI [7] was > 100 µM. The TGI [8] was > 100 µM, the TGI [9] was > 100 µM and the TGI [19] was > 100 µM. For the same compound, the TGI [10] was > 100 µM, the TGI [11] was > 100 µM and the TGI [12] was > 100 µM. For the same compound, the TGI [20] was > 100 µM, the TGI [13] was > 100 µM and the TGI [14] was > 100 µM. The TGI [15] was > 100 µM, the TGI [16] was > 100 µM and the TGI [17] was > 100 µM. For the same compound, the TGI [18] was > 100 µM.

In the case of `CC1=CC(=O)[C@@H](O)[C@]2(C)[C@H]3[C@@]4(O)OC[C@@]35[C@@H](C[C@@H]12)OC(=O)C(OC(=O)CC1=CCCC1)[C@H]5[C@@H](C)[C@H]4O` (stereo partly drawn), the TGI [1] is reported as 0.443 µM, the TGI [2] is reported as 0.039 µM and the TGI [4] is reported as 0.234 µM. It also gave a TGI [5] of 0.0733 µM, a TGI [6] of 0.0653 µM and a TGI [7] of 0.284 µM. The TGI [8] was 0.35 µM, the TGI [9] was 0.449 µM and the TGI [19] was > 29.5 µM. It also gave a TGI [10] of 8.99 µM, a TGI [11] of 0.136 µM and a TGI [12] of 1.21 µM. The TGI [20] was 0.133 µM, the TGI [13] was 0.112 µM and the TGI [14] was 0.166 µM. It also gave a TGI [15] of 1.15 µM, a TGI [17] of 2.53 µM and a TGI [18] of 1.45 µM.

Source: PubChem BioAssay (NCI)
